Test results from paper PMC3788796, “The Antimicrobial Domains of Wheat Puroindolines Are Cell-Penetrating Peptides with Possible Intracellular Mechanisms of Action” (PLoS ONE, 2013).
Values joined by “and” are separate entries in the source; they are usually repeats but may differ in a detail not shown here. Equal values may be shown once.

Columns and labels:
[1] = Calcein dye leakage from mammalian-mimicking LUVs; type: biochemical; conditions: for % Calcein leakage from DOPC LUVs: LUVs 10 µM phospholipid, 10 mM Tris, 100 mM NaCl pH 7.4, 5 min, fluorescence 496/515 nm, no-peptide control 28.0, average of duplicate experiments
Description: A calcein leakage assay as previously described was performed to determine the effects of PIN-based peptides on the permeability of synthetic large unilamellar vesicles (LUVs), designed to mimic bacterial and mammalian cell membranes. The phospholipids used were DOPC (1,2-dioleoyl-sn-glycero-3-phosphocholine), with zwitterionic head groups and DOPG (1,2-dioleoyl-sn-glycerol-3-[phosphor-rac-(1-glycerol)]), with negatively charged headgroups (Avanti® Polar lipids, Alabaster, USA). These were used to make DOPC:DOPG (1∶3) LUVs to mimic bacterial cell membranes, or DOPC only, to mimic mammalian cell membranes. Calcein-entrapped LUVs were prepared by the extrusion method using an Avanti mini extrusion apparatus (Avanti® Polar Lipids, Alabaster, USA). The DOPC:DOPG (a 1∶3 mixture) or DOPC were dissolved in chloroform (25 mg/mL) and aliquoted into glass test tubes to give a concentration of 2.6 mM when resuspended in 2 mL buffer. Chloroform was evaporated under a stream of N2 and the lipid films were dried overnight under vacuum. The films were then resuspended in 2.0 mL of 70 mM calcein buffer (in 10 mM Tris-HCl, pH 7.4) and incubated at room temperature for 30 minutes. To increase entrapment of the dye, five repeated freeze\thaw cycles were used by placing the vial in liquid N2 and then a warm water bath (37°C). The lipid mixture was then extruded through the mini-extruder 10 times through two stacked 0.1 µm pore-size filters. Free calcein was removed by centrifugation (10, 000×g, 10 min) three times and washing with 10 mM Tris, 100 mM NaCl buffer (pH 7.4). Standards of phosphorus (inorganic P; Pi) were prepared (0.05–1.5 mg/mL) using KH2PO4 and read at 820 nm and a linear standard curve was generated (Figure S1 in File S1). The phospholipid concentration of the vesicle preparations was determined by a total phosphorus assay. The assay reagent was prepared fresh by mixing 1 part of 1% ascorbic acid with 6 parts of 0.42% ammonium molybdate•4H2O in H2SO4 and stored on ice. 7 µL of it was added to 3 µL of vesicle suspensions and incubated for 20 min at 45°C. […] The standard curve of phosphorus standards (Figure S1 in File S1) was used to determine the Pi concentration in a LUV preparation, and this was converted to phospholipid concentration (Table S1 in File S1) to adjust the preparations to the required 10 µM phospholipid concentration prior to peptide treatment.
The calcein-filled LUVs were diluted with 10 mM Tris, 100 mM NaCl buffer (pH 7.4) to a final phospholipid concentration of 10 µM. The experiments were performed in a Varian Cary Eclipse fluorescence spectrophotometer with excitation and emission wavelengths of 496 nm and 515 nm, slit widths of […] and a PMT detector of 600 V. The peptides (PuroA, Pina-M, Pina-W→F and PuroB) were added to LUVs to a final peptide concentration of 8–125 µg/mL in 100 µL volumes and the fluorescence (F) monitored for 5 min at 60 s intervals. The total calcein fluorescence (FT) was determined by addition of 1.0% Triton X100. The dye leakage was calculated as % Leakage = ((F – F0)/(FT – F0)), F0 being fluorescence of each sample at T = 0.

[2] = system: plasmid DNA (pBluescript SK+); test: Gel retardation assay for in vitro DNA binding; conditions: 100 ng plasmid DNA in 10 µL MilliQ water, 1 h room temperature, peptide 16–500 µg/mL, post-electrophoresis EtBr staining, triplicate assays
Description: This test assesses any peptide-DNA binding by noting the retardation of the rate of migration of DNA bands through agarose gels. A number of methods were tested. As per Hsu et al., DNA of a plasmid (200 ng) or a commercial molecular weight marker (50 ng) was mixed with a peptide (to final concentrations of 32, 64, 125 or 250 µg/mL) in 15 µL of 10 mM Tris-1 mM EDTA buffer (pH 8.0), incubated at room temperature for 2 min, then electrophoresed in 0.5% or 1.0% agarose gels containing 0.5 µg/mL ethidium bromide (EtBr). Following Park et al., 100 ng plasmid DNA was mixed with a peptide (to different concentrations) in 20 µL binding buffer (5% glycerol, 10 mM Tris-HCl (pH 8.0), 1 mM EDTA, 1 mM DTT, 20 mM KCl, 50 µg/mL BSA), held for 1 h at room temperature, then electrophoresed in EtBr-containing gels. Finally the protocols were modified to eliminate any interference of EtBr in the initial peptide-DNA binding. Plasmid DNA (100 ng) was mixed with a peptide (to final concentrations of 16, 32, 64, 125, 250 or 500 µg/mL) in 10 µL of MilliQ water, held at room temperature for 1 h and electrophoresed, followed by emersion of gels in EtBr solution (0.5 µg/mL) for 30 min before imaging.

S. cerevisiae cells = test: SEM of peptide-treated yeast cells; type: cell-based, Saccharomyces cerevisiae; conditions: sub-MIC: PuroA and Pina-M 64 µg/mL, Pina-W→F 125 µg/mL; 1 h 30°C
Description: S. cerevisiae cultures were grown overnight in 5.0 mL of PDB 30°C, to OD600 = 1.2–1.8 (∼5×10^7 cells/mL). 75 µL aliquots of the yeast cell suspension were incubated with 25 µL of PuroA, Pina-M, Pina-W→F or PuroB (at final concentrations of 0.5×, 1× or 2× of the respective MIC for S. cerevisiae; see results) for 1 h at 30°C. The cells were collected by centrifugation (1000×g, 5 min), the pellets washed three times in PBS (pH 7.4) and resuspended in 100 µL MilliQ (ultra-pure) water. A 25 µL aliquot of the cell suspension was spotted onto a glass slide, air-dried, then fixed and dehydrated as described previously. In brief, the air-dried slides were fixed in 2.5% glutaraldehyde (in PBS, pH 7.4) overnight in a humid chamber, then washed with PBS pH 7.4 for 10 min, and dehydrated in an ethanol gradient of 50%, 60%, 70%, 80%, 90% and 100%. The slides were freeze-dried overnight and then coated in a Dynavac CS300 coating unit with carbon and gold, with double sided conducting carbon tape attached to the slides for better conductivity. The samples were analysed using a ZEISS supra 10 VP field emission scanning electron microscope (Carl Zeiss Microscopy, NY, USA) at 3.0 kV.

E. coli cells = conditions: data from previous work; cited from earlier work

In the case of “FPVTFRFFKFFKG-NH2 [Pina-W→F, PuroA-based peptide with all Trps substituted with Phe residues]”, the “dye leakage from the DOPC LUVs (in words)” value ([1]; over all tested concentrations, even at high concentration) is reported as “no significant leakage”, the “% Calcein leakage from DOPC LUVs” value ([1]; peptide 8 µg/mL) is reported as 28.0% and the “% Calcein leakage from DOPC LUVs” value ([1]; peptide 16 µg/mL) is reported as 27.0%. For the same substance, the “% Calcein leakage from DOPC LUVs” value ([1]; peptide 32 µg/mL) was 27.0%, the “% Calcein leakage from DOPC LUVs” value ([1]; peptide 64 µg/mL) was 31.0% and the “% Calcein leakage from DOPC LUVs” value ([1]; peptide 125 µg/mL (highest for PuroA, Pina-M, Pina-W→F)) was 36.0%. For the same substance, the “Peptide concentration inducing gel retardation, Partial” value [2] was 32 ± 0 µg/mL, the “Peptide concentration inducing gel retardation, Full” value ([2]; complete inhibition of migration) was 64 µg/mL and 64 ± 0 µg/mL and the “surface morphology of yeast cells (SEM) at sub-MIC level” value (S. cerevisiae cells) was “shallow pits or pores on the surface”. The “MIC against E. coli cells” value (E. coli cells) was 32 µg/mL and 32 ± 0 µg/mL.
